Source: patent US20240398757A1 (COCRYSTAL PHARMA, INC., priority 2022, published 2024)

What follows are compounds tested against T1, SARS2 protease (Severe acute respiratory syndrome coronavirus 2, UniProt P0DTD1) (assay: SARS-CoV-2 protease inhibition assay (SARS2 FRET protease assay)). Conditions: IC50 (μM), SARS2 protease 30 nM, peptide substrate 1.3 μM, 120 minutes at 37° C., compounds 20 μM to 0.075 nM.
T1 construct: SARS2 protease was added to a final concentration of 30 nM
Format: biochemical

Row | Structure (SMILES) | IC50
1 | O=C[C@H](C[C@@H]1CCNC1=O)NC(=O)[C@H](Cc1ccccc1)NC(=O)O[C@@H](c1ccccc1)C(F)(F)c1cccc(Cl)c1 [Compound A253, (S)-2-(3-chlorophenyl)-2,2-difluoro-1-phenylethyl ((S)-1-oxo-1-(((S)-1-oxo-3-((S)-2-oxopyrrolidin-3-yl)propan-2-yl)amino)-3-phenylpropan-2-yl)carbamate] | 2 nM
2 | O=C[C@H](C[C@@H]1CCNC1=O)NC(=O)[C@H](Cc1ccccc1)NC(=O)OC(C1CCCCC1)C(F)(F)c1cccc(Cl)c1 (stereo partly shown) [Compound A254] | 2 nM
3 | CCNC(=O)C(=O)[C@H](C[C@@H]1CCNC1=O)NC(=O)[C@H](Cc1ccccc1)NC(=O)OC(C1CCCCC1)C(F)(F)c1cccc(Cl)c1 (stereo partly drawn) [Compound A255, 2-(3-Chlorophenyl)-1-cyclohexyl-2,2-difluoroethyl ((S)-1-(((S)-4-(ethylamino)-3,4-dioxo-1-((S)-2-oxopyrrolidin-3-yl)butan-2-yl)amino)-1-oxo-3-phenylpropan-2-yl)carbamate] | 208 nM
4 | CCCC[C@H](NC(=O)OC(c1ccncc1)C(F)(F)c1cccc(Cl)c1)C(=O)N[C@H](C=O)C[C@@H]1CCNC1=O (stereo partly drawn) [Compound A256, 2-(3-Chlorophenyl)-2,2-difluoro-1-(pyridin-4-yl)ethyl ((S)-1-oxo-1-(((S)-1-oxo-3-((S)-2-oxopyrrolidin-3-yl)propan-2-yl)amino)hexan-2-yl)carbamate] | 1 nM
5 | CCCC[C@H](NC(=O)OC(c1ccncc1)C(F)(F)c1cccc(Cl)c1)C(=O)N[C@@H](C[C@@H]1CCNC1=O)C(=O)C(=O)NC1CC1 (stereo partly drawn) [Compound A257, 2-(3-Chlorophenyl)-2,2-difluoro-1-(pyridin-4-yl)ethyl ((S)-1-(((S)-4-(cyclopropylamino)-3,4-dioxo-1-((S)-2-oxopyrrolidin-3-yl)butan-2-yl)amino)-1-oxohexan-2-yl)carbamate] | 0.1 nM
6 | CCCC[C@H](NC(=O)CC(O)(Cc1cccc(Cl)c1)c1ccccc1)C(=O)N[C@@H](C[C@@H]1CCNC1=O)C(=O)C(=O)NCC (stereo partly drawn) [Compound A259, (2S)-2-(4-(3-chlorophenyl)-3-hydroxy-3-phenylbutanamido)-N—((S)-4-(ethylamino)-3,4-dioxo-1-((S)-2-oxopyrrolidin-3-yl)butan-2-yl)hexanamide] | 413 nM
7 | CCCC[C@H](NC(=O)CC(O)(c1ccccc1)C(C)(C)c1cccc(Cl)c1)C(=O)N[C@H](C=O)C[C@@H]1CCNC1=O (stereo partly drawn) [Compound A260, (2S)-2-(4-(3-chlorophenyl)-3-hydroxy-4-methyl-3-phenylpentanamido)-N—((S)-1-oxo-3-((S)-2-oxopyrrolidin-3-yl)propan-2-yl)hexanamide] | 2 nM
8 | CCCC[C@H](NC(=O)CC(O)(c1ccccc1)C(C)(C)c1cccc(Cl)c1)C(=O)N[C@@H](C[C@@H]1CCNC1=O)C(=O)C(=O)NCC (stereo partly drawn) [Compound A261, (2S)-2-(4-(3-chlorophenyl)-3-hydroxy-4-methyl-3-phenylpentanamido)-N—((S)-4-(ethylamino)-3,4-dioxo-1-((S)-2-oxopyrrolidin-3-yl)butan-2-yl)hexanamide] | 1090 nM
9 | O=C[C@H](C[C@@H]1CCNC1=O)NC(=O)[C@H](Cc1ccc(Cl)cc1)NC(=O)OC(c1ccccc1)C(F)(F)c1cccc(Cl)c1 (stereo partly drawn) [Compound A262, 2-(3-chlorophenyl)-2,2-difluoro-1-phenylethyl ((S)-3-(4-chlorophenyl)-1-oxo-1-(((S)-1-oxo-3-((S)-2-oxopyrrolidin-3-yl)propan-2-yl)amino)propan-2-yl)carbamate] | 203 nM
10 | CCNC(=O)C(=O)[C@H](C[C@@H]1CCNC1=O)NC(=O)[C@H](Cc1ccc(Cl)cc1)NC(=O)OC(c1ccccc1)C(F)(F)c1cccc(Cl)c1 (stereo partly drawn) [Compound A263, 2-(3-chlorophenyl)-2,2-difluoro-1-phenylethyl ((S)-3-(4-chlorophenyl)-1-(((S)-4-(ethylamino)-3,4-dioxo-1-((S)-2-oxopyrrolidin-3-yl)butan-2-yl)amino)-1-oxopropan-2-yl)carbamate] | 7020 nM
11 | CC(C)C(OC(=O)N[C@@H](Cc1ccccc1)C(=O)N[C@H](C=O)C[C@@H]1CCNC1=O)C(F)(F)c1cccc(Cl)c1 (stereo partly drawn) [Compound A266, 1-(3-Chlorophenyl)-1,1-difluoro-3-methylbutan-2-yl ((S)-1-oxo-1-(((S)-1-oxo-3-((S)-2-oxopyrrolidin-3-yl)propan-2-yl)amino)-3-phenylpropan-2-yl)carbamate] | 0.1 nM
12 | CCCC[C@H](NC(=O)O[C@@H](c1cccnc1)C(F)(F)c1cccc(Cl)c1)C(=O)N[C@H](C=O)C[C@@H]1CCNC1=O [Compound A267, (S)-2-(3-chlorophenyl)-2,2-difluoro-1-(pyridin-3-yl)ethyl ((S)-1-oxo-1-(((S)-1-oxo-3-((S)-2-oxopyrrolidin-3-yl)propan-2-yl)amino)hexan-2-yl)carbamate] | 9 nM
13 | CCCC[C@H](NC(=O)O[C@H](c1cccnc1)C(F)(F)c1cccc(Cl)c1)C(=O)N[C@H](C=O)C[C@@H]1CCNC1=O [Compound A268, (R)-2-(3-chlorophenyl)-2,2-difluoro-1-(pyridin-3-yl)ethyl ((S)-1-oxo-1-(((S)-1-oxo-3-((S)-2-oxopyrrolidin-3-yl)propan-2-yl)amino)hexan-2-yl)carbamate] | 0.08 nM
14 | CCCC[C@H](NC(=O)OC(c1ccccc1)C(F)(F)c1cccc(Cl)c1)C(=O)N[C@@H](C[C@@H]1CCNC1=O)C(=O)c1nc2ccccc2o1 (stereo partly drawn) [Compound A269, 2-(3-chlorophenyl)-2,2-difluoro-1-phenylethyl ((S)-1-(((S)-1-(benzo[d]oxazol-2-yl)-1-oxo-3-((S)-2-oxopyrrolidin-3-yl)propan-2-yl)amino)-1-oxohexan-2-yl)carbamate] | 418 nM
15 | CCCC[C@H](NC(=O)OC(c1ccccc1)C(F)(F)c1cccc(Cl)c1)C(=O)N[C@@H](C[C@@H]1CCNC1=O)C(=O)C(=O)NCCN(CC)CC (stereo partly shown) [Compound A271] | 936 nM
16 | CC(C)C[C@H](NC(=O)O[C@@H](C(C)C)C(F)(F)c1cccc(-c2ccccc2)c1)C(=O)N[C@H](C=O)C[C@@H]1CCNC1=O [Compound A272, (S)-1-([1,1′-biphenyl]-3-yl)-1,1-difluoro-3-methylbutan-2-yl ((S)-4-methyl-1-oxo-1-(((S)-1-oxo-3-((S)-2-oxopyrrolidin-3-yl)propan-2-yl)amino)pentan-2-yl)carbamate] | 1 nM
17 | CC(C)C[C@H](NC(=O)O[C@@H](c1ccccc1)C(F)(F)c1cccc(C(C)C)c1)C(=O)N[C@H](C=O)C[C@@H]1CCNC1=O [Compound A275, (S)-2,2-difluoro-2-(3-isopropylphenyl)-1-phenylethyl ((S)-4-methyl-1-oxo-1-(((S)-1-oxo-3-((S)-2-oxopyrrolidin-3-yl)propan-2-yl)amino)pentan-2-yl)carbamate] | 1 nM
18 | CCNC(=O)C(=O)[C@H](C[C@@H]1CCNC1=O)NC(=O)[C@H](Cc1ccccc1)NC(=O)OCCCc1ccccc1 [Compound A276, 3-Phenylpropyl ((S)-1-(((S)-4-(ethylamino)-3,4-dioxo-1-((S)-2-oxopyrrolidin-3-yl)butan-2-yl)amino)-1-oxo-3-phenylpropan-2-yl) carbamate] | 4150 nM
19 | O=C[C@H](C[C@@H]1CCNC1=O)NC(=O)[C@H](Cc1ccccc1)NC(=O)OCCCc1ccccc1 [Compound A277, 3-Phenylpropyl ((S)-1-oxo-1-(((S)-1-oxo-3-((S)-2-oxopyrrolidin-3-yl)propan-2-yl)amino)-3-phenylpropan-2-yl) carbamate] | 218 nM
20 | O=C(N[C@@H](CC1CCCCC1)C(=O)N[C@@H](C[C@@H]1CCNC1=O)C(=O)c1nc2ccccc2o1)OC(c1ccccc1)C(F)(F)c1cccc(Cl)c1 (stereo partly drawn) [Compound A278, 2-(3-chlorophenyl)-2,2-difluoro-1-phenylethyl ((S)-1-(((S)-1-(benzo[d]oxazol-2-yl)-1-oxo-3-((S)-2-oxopyrrolidin-3-yl)propan-2-yl)amino)-3-cyclohexyl-1-oxopropan-2-yl)carbamate] | 249 nM
21 | CC(C)(c1cccc(Cl)c1)C(OC(=O)N[C@@H](Cc1ccc(Cl)c(Cl)c1)C(=O)N[C@H](C=O)C[C@@H]1CCNC1=O)c1ccccc1 (stereo partly drawn) [Compound A279, 2-(3-chlorophenyl)-2-methyl-1-phenylpropyl ((S)-3-(3,4-dichlorophenyl)-1-oxo-1-(((S)-1-oxo-3-((S)-2-oxopyrrolidin-3-yl)propan-2-yl)amino)propan-2-yl)carbamate] | 423 nM
22 | CCNC(=O)C(=O)[C@H](C[C@@H]1CCNC1=O)NC(=O)[C@H](Cc1ccc(Cl)c(Cl)c1)NC(=O)OC(c1ccccc1)C(C)(C)c1cccc(Cl)c1 (stereo partly drawn) [Compound A280, 2-(3-chlorophenyl)-2-methyl-1-phenylpropyl ((S)-3-(3,4-dichlorophenyl)-1-(((S)-4-(ethylamino)-3,4-dioxo-1-((S)-2-oxopyrrolidin-3-yl)butan-2-yl)amino)-1-oxopropan-2-yl)carbamate] | 4500 nM
23 | CCC1(C[C@H](NC(=O)OC(c2ccccc2)C(F)(F)c2cccc(Cl)c2)C(=O)N[C@@H](C[C@@H]2CCNC2=O)C(=O)C(=O)NC2CC2)CC1 (stereo partly drawn) [Compound A281, 2-(3-chlorophenyl)-2,2-difluoro-1-phenylethyl ((S)-1-(((S)-4-(cyclopropylamino)-3,4-dioxo-1-((S)-2-oxopyrrolidin-3-yl)butan-2-yl)amino)-3-(1-ethylcyclopropyl)-1-oxopropan-2-yl)carbamate] | 1 nM
24 | CC(C)C[C@H](NC(=O)O[C@@H](c1ccccc1)C(F)(F)c1cccc(Cl)c1)C(=O)N[C@@H](C[C@@H]1CCNC1=O)C(=O)C(N)=O [Compound A282, (S)-2-(3-chlorophenyl)-2,2-difluoro-1-phenylethyl ((S)-1-(((S)-4-amino-3,4-dioxo-1-((S)-2-oxopyrrolidin-3-yl)butan-2-yl)amino)-4-methyl-1-oxopentan-2-yl)carbamate] | 1 nM
25 | CCCC[C@H](NC(=O)O[C@@H](c1ccccc1)C(F)(F)c1cccc(F)c1)C(=O)N[C@@H](C[C@@H]1CCNC1=O)C(=O)C(=O)NCC [Compound A283, (S)-2,2-difluoro-2-(3-fluorophenyl)-1-phenylethyl ((S)-1-(((S)-4-(ethylamino)-3,4-dioxo-1-((S)-2-oxopyrrolidin-3-yl)butan-2-yl)amino)-1-oxohexan-2-yl)carbamate] | 122 nM
